Results from US20260183432A1, “IMAGING AGENTS FOR DETECTING CD206+ MACROPHAGES” (THE GENERAL HOSPITAL CORPORATION, priority 2022, published 2026).
“Also recorded” adds a separate entry of the source.

What was measured:
[1] = test system: M1 and M2 macrophages differentiated from Raw 264.7 cells; experiment: fluorescence imaging of M1- and M2-differentiated macrophages; format: cell-based; settings: incubated at 37° C.
Experimental: M1- and M2-differentiated macrophages were incubated with 1/1000 dilution of MR2-cy5 stock solution (10 mM in DMSO) for 1 h at 37° C. and counter-stained with DAPI (4′,6-diamidino-2-phenylindole, Invitrogen). The cells were washed with PBS and fluorescence imaging was captured with a digital microscope (Nikon Eclipse TE2000-U).
M1 and M2 polarized differentiation. Raw 264.7 cells (Passage 8 from the cell core of center for Systems Biology at Massachusetts General Hospital, Boston) in 10 mL petri dishes were cultured with Dulbecco's modified eagle medium with high glucose (DMEM, Thermo Fisher Scientific, NY, USA) containing 10% of fetal bovine serum (FBS, Sigma-Aldrich, MO, USA) and 0.5% streptomycin/penicillin (Cellgro) until reaching 80% of confluency. Then differentiating media containing IFN-gamma (100 ng/ml the above medium) for M1 polarization and IL-4 (100 ng/mL) for M2 polarization were added to the dishes, respectively. After 24 h, the M1 and M2 polarized macrophages were ready for the following experiments.

[2] = in vitro relaxivity (r1), Bruker Minispect; format: physicochemical
Experimental: Relaxation time (T1) of Mann2-DTPA-Gd/MannGdFish at concentrations of 0.1, 0.2, 0.3, 0.5, 0.6, 0.75, and 1 mM in PBS was measured on the Bruker Minispect (Bruker Analytics, MA) at 0.47 T (20 MHz) at 40° C. The slope value of the linear function of 1/T1 (s) to their corresponding concentrations is defined as the relaxivity (n=3 for each concentration).

[3] = blood half-life by ICP-MS; format: in vivo, mouse; settings: two-phase exponential model
Experimental: (§1) 6-10 weeks old of C57BL/6J mice were administered with MannGdFish intravenously 24 h after the wound injury. At 3 h and on day 7 after induction, mice were sacrificed and major organs including wound skins and the counter skins were harvested (n=3 for each time point). Blood samples were collected before and at different time points after the administration of MannGdFish (n=6) and centrifuged to obtain the plasma. The samples were weighed, treated with nitric acid, and subjected to inductively coupled plasma mass spectrometry (ICP-MS) to determine the amount of gadolinium as described in Example 6.

CD206+ macrophages = experiment: MR imaging in mouse model of cutaneous wound healing; format: in vivo; settings: for contrast-to-noise ratio (CNR) time course: wildtype mice, day 7 after wound induction
Experimental: Eight-to nine-week-old C57BL/6J female mice were used for MRI of wound healing and glioma (Jackson Laboratory, ME). The generation of wound healing and glioma is described in Examples 14 and 15, respectively. The mice with subcutaneous wounds were imaged on days 1, 4, and 7 longitudinally or on day 7. Mice with glioma were imaged on the third week. All the mice were imaged pre- and at 0, 15, 30, 45 and 60 min after 0.3 mmol/kg of Mann2-DTPA-Gd or MannGdFish was administered intravenously via a tail vein using serial T1 rapid acquisition with relaxation enhancement (RARE) sequence (TR: 935.77 ms, TE: 13.59 ms, averages: 12, rare factor: 4, 256×256×48 matrix size, 0.156×0.156×1 mm^3 voxel size) with chemical fat suppression using a Hermitian pulse shape with an 8.253 ms pulse and 701.19 Hz bandwidth 3.5 ppm down from the water peak and respiratory gating on a 4.7 T small animal MR scanner (Bruker, Cambridge, MA) with a 3 cm quadrature volume coil (Rapid MR International, Germany). Regions of interest (ROIs) were drawn and the contrast-to-noise ratios (CNRs, CNRpre-contrast subtracted) were calculated by a radiologist with over 20 years of experience blinded to the identity of the imaging agent used and the strain of the mice (n=3 per group).
Wound healing procedure. Seven-to ten-week-old C57BL/6J female mice (The Jackson Laboratories, ME) and mannose-receptor deficient mice were used in this study. A circular outline on the back of a mouse was made with a 4 mm biopsy punch (Kai Medical, Japan) under anesthesia using isoflurane. Then a full-thickness excisional wound was generated that extended through the subcutaneous tissue. A silicone splint was glued over the wound, anchored with 6-0 nylon sutures, and covered with a transparent occlusive dressing (OpSite). Xylazine/norepinephrine (100 μL) were intraperitoneally injected twice a day for two days and the mice were monitored daily.

RAW 264.7 cells = experiment: cytotoxicity, MTT assay; format: cell-based; settings: n=3
Experimental: The cytotoxicity of MannGdFish was evaluated using RAW264.7 cells (Passage 8 from the cell core of the Center for Systems Biology at Massachusetts General Hospital, Boston) with an MTT assay as described by Wang et. al (J Med Chem 64, 5874-5885 (2021)) (n=3).

[4] = biodistribution and retention by ICP-MS in mice with cutaneous wound; format: in vivo, mouse
Experimental: as §1

CD206 = target: T1, CD206 (Homo sapiens, UniProt P22897); settings: read-out: binding affinity to CD206 (IC50); cited from earlier work
T1 sequence (P22897 19-1456): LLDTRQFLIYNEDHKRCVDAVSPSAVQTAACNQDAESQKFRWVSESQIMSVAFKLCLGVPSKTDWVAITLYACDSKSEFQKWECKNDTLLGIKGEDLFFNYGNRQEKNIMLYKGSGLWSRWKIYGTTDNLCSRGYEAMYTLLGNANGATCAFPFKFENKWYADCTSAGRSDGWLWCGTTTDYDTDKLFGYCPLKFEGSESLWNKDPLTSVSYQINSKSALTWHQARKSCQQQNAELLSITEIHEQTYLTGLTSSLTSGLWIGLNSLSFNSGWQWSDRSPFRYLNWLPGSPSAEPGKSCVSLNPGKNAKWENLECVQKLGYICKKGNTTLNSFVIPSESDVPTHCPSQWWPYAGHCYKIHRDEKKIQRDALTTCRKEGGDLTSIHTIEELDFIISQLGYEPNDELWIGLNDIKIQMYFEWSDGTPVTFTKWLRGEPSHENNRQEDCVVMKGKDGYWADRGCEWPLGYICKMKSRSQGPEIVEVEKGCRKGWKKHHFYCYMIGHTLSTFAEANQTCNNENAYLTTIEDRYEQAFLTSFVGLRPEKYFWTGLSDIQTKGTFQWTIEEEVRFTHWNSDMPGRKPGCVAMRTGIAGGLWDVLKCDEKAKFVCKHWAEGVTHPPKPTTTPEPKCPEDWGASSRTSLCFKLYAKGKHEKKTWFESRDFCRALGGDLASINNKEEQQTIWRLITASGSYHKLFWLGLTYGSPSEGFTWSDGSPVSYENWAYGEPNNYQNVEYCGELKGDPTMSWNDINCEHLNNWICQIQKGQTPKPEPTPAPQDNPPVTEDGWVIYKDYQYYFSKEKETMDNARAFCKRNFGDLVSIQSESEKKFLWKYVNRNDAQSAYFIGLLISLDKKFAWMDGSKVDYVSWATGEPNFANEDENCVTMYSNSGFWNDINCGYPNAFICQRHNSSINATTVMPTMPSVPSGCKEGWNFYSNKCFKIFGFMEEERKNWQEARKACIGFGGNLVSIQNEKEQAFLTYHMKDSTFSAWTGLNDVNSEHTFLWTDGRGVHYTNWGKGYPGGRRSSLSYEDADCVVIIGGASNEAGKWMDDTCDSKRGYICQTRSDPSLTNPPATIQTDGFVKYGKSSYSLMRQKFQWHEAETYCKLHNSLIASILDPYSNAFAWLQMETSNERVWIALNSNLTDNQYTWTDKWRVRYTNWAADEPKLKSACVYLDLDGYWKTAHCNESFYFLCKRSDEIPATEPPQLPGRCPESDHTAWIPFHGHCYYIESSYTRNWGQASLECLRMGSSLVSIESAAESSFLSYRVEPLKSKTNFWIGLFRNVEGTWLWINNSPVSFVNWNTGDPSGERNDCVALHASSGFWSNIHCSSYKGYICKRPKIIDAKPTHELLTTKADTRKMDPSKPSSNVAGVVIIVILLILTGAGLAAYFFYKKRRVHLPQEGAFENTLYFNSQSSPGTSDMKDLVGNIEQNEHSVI

[5] = PET imaging of [68]Ga-MannGaFish; settings: in vivo

CC[N+]1=C(/C=C/C=C/C=C2/N(CCCCCC(=O)NC(COC3OC(CO)C(O)C(O)C3O)COC3OC(CO)C(O)C(O)C3O)c3ccc(S(=O)(=O)O)cc3C2(C)C)C(C)(C)c2cc(S(=O)(=O)[O-])ccc21 (stereo not shown) [MR2-cy5]
fluorescence signal, M2 versus M1 macrophages (specificity) [1]: much higher signal from M2 macrophages than that from M1 macrophages; also recorded: much higher signal in M2 macrophages compared to that in M1 macrophages

CC[N+]1=C(/C=C/C=C/C=C2/N(CCCCCC(=O)NC3C(O)OC(CO)C(O)C3O)c3ccc(S(=O)(=O)O)cc3C2(C)C)C(C)(C)c2cc(S(=O)(=O)[O-])ccc21 (stereo not shown) [MR1-cy5]
fluorescence signal, M2 versus M1 macrophages (specificity) [1]: low specificity to M2 macrophages

O=C([O-])CN1CCN(CC(=O)[O-])CCN(C(CCC(=O)NC(COC2OC(CO)C(O)C(O)C2O)COC2OC(CO)C(O)C(O)C2O)C(=O)[O-])CCN(CC(=O)O)CC1.[Gd+3] (stereo not shown) [MannGdFish]
relaxivity (r1) [2]: 5.2 mmol⁻¹ s⁻¹ | blood half-life, fast phase [3]: 0.3 min | blood half-life, slow phase [3]: 6.1 min | MR signal compared to DOTA-Gd (CD206+ macrophages; 60 min, wound healing day 7): much higher in comparison with that of DOTA-Gd; also recorded: much higher compared to that of DOTA-Gd | contrast-to-noise ratio (CNR) time course (CD206+ macrophages): slow decrease of CNR | CNR compared to Mann2-DTPA-Gd (CD206+ macrophages; wildtype wound healing mice, day 7): slightly higher CNRs and similar dynamic profile as that of Mann2-DTPA-Gd; also recorded: slightly higher compared to that of Mann2-DTPA-Gd | cytotoxicity: concentration up to which no cytotoxic effect was observed (RAW 264.7 cells): > 5 mM | gadolinium in wound versus normal skin ([4]; 3 h after administration, wound 24 h post-injury): low and not significantly different compared to that in the normal skin | major organs containing gadolinium ([4]; 3 h and day 7): liver and spleen being the major organs containing gadolinium | accumulation or retention of Gd in the body ([4]; 3 h and day 7, ICP-MS): < 0.5 nmol Gd per gram tissue | gadolinium in wound versus normal skin ([4]; day 7): higher in the wound than that in the normal skin

O=C[C@@H](O)[C@@H](O)[C@H](O)[C@H](O)CO [D-mannose]
IC50 (CD206): 5.5 mM

O=C([O-])CN1CCN(CC(=O)[O-])CCN(C(CCC(=O)NC(COC2OC(CO)C(O)C(O)C2O)COC2OC(CO)C(O)C(O)C2O)C(=O)[O-])CCN(CC(=O)O)CC1.[68Ga+3] (stereo not shown) [[68]Ga-MannGaFish]
uptake in organs on PET imaging [5]: low uptakes in the lungs and heart

O=C([O-])CN1CCN(CC(=O)[O-])CCN(CC(=O)O)CCN(CC(=O)[O-])CC1.[Gd+3] [DOTA-Gd, reference compound]
contrast-to-noise ratio (CNR) time course (CD206+ macrophages): decreased significantly 15 min post-injection; also recorded: decreased rapidly after peaking at 15 min post-injection
